Results on four compounds are retold here after ChEMBL document CHEMBL1142715, “Discovery of new tetracyclic tetrahydrofuran derivatives as potential broad-spectrum psychotropic agents” (J Med Chem, 2005).

For one test, the target named is Histamine H1 receptor (Homo sapiens, UniProt P35367).
For test [1], the target named is 5-hydroxytryptamine receptor 2A (Homo sapiens, UniProt P28223).
Description: Inhibition of [125I]R91150 binding to human 5-hydroxytryptamine 2A receptor
Test [2] addresses T1, Alpha-2A adrenergic receptor (Homo sapiens, UniProt P08913).
T1 sequence (P08913 whole entry): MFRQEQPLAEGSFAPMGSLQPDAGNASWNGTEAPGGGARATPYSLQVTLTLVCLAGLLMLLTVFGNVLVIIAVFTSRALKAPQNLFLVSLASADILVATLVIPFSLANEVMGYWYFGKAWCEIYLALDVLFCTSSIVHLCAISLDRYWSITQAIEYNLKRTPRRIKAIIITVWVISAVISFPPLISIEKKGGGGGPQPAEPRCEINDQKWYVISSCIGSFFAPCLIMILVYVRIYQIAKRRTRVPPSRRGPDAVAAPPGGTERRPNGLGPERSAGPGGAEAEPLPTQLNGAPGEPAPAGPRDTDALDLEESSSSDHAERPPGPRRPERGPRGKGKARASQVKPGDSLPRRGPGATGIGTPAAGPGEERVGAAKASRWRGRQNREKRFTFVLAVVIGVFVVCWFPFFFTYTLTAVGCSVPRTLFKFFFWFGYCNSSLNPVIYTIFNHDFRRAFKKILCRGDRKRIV
Description: Inhibition of [3H]rauwolscine binding to Alpha-2A adrenergic receptor

Test [3] concerns the target T2, 5-hydroxytryptamine receptor 2C (Homo sapiens, UniProt P28335).
T2 sequence (P28335 whole entry): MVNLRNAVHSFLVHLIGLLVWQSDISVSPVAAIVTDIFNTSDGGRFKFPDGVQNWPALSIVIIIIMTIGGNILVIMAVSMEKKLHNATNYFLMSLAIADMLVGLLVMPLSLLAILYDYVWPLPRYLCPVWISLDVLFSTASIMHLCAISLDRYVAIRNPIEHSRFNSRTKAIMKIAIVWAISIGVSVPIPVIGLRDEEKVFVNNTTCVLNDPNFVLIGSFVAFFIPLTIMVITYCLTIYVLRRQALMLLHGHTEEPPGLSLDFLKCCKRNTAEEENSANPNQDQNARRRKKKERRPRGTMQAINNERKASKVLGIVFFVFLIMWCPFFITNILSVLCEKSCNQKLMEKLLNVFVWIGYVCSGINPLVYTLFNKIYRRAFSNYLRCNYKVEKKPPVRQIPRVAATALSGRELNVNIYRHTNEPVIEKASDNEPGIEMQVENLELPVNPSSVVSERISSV
Description: Inhibition of [3H]mesulergine binding to human 5-hydroxytryptamine 2C receptor

Test [4] concerns the target T3, Adrenergic receptor alpha-1 (Rattus norvegicus, UniProt P15823+P23944+P43140).
T3 sequence (P15823 whole entry): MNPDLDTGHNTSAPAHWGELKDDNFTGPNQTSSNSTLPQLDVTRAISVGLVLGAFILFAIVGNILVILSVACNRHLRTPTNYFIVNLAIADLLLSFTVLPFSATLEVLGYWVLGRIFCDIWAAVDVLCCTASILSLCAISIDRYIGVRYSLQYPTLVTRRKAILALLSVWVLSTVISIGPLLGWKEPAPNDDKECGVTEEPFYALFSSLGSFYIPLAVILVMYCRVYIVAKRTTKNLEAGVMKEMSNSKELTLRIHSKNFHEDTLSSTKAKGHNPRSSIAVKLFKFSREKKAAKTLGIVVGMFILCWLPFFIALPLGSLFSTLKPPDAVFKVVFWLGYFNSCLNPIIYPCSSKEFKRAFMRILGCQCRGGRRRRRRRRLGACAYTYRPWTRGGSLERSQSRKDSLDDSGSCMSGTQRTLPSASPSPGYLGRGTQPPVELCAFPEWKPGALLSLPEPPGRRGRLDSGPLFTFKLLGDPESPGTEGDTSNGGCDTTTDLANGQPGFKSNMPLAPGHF
T3 sequence (P23944 whole entry): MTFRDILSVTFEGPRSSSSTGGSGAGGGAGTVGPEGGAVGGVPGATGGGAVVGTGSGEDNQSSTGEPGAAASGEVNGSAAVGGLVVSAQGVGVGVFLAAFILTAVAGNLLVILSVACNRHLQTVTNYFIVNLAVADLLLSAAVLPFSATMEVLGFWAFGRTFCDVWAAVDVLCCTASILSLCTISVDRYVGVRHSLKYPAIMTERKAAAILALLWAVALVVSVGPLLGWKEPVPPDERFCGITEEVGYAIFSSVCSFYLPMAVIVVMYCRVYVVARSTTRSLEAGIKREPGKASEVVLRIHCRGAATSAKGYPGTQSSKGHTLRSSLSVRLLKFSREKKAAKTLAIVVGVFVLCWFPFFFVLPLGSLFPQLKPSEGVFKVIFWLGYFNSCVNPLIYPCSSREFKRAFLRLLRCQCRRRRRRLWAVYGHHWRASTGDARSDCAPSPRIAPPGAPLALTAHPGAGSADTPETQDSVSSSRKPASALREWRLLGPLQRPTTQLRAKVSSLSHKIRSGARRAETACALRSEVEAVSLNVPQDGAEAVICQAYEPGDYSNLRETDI
T3 sequence (P43140 whole entry): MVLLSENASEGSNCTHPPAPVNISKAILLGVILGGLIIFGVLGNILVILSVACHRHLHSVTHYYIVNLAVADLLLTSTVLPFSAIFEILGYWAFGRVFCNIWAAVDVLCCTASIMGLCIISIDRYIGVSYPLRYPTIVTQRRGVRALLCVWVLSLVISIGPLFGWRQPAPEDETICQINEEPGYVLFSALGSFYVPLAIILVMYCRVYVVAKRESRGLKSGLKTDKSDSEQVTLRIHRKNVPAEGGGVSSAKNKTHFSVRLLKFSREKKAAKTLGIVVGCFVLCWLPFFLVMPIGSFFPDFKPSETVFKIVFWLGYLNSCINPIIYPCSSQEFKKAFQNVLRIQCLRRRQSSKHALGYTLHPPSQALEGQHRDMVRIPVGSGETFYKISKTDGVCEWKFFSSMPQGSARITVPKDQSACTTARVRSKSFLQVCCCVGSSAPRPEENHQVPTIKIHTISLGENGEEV
Description: Inhibition of [3H]prazosin binding to rat Alpha-1 adrenergic receptor

In test [5] the target is 5-hydroxytryptamine receptor 7 (Homo sapiens, UniProt P34969).
Chain of 5-hydroxytryptamine receptor 7 (P34969 whole entry): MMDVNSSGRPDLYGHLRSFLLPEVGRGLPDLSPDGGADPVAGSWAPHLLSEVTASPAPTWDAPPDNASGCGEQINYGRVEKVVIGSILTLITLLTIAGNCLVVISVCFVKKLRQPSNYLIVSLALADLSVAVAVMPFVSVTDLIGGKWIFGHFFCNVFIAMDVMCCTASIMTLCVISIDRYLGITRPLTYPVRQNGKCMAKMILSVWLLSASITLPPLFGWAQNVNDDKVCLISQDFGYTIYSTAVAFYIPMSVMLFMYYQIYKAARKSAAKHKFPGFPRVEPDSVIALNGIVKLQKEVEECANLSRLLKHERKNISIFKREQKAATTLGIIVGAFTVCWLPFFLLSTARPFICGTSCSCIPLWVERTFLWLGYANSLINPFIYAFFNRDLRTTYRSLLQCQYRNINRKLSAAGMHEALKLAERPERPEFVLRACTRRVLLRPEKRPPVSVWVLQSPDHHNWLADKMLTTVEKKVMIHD
Description: Inhibition of [3H]5-HT binding to human 5-hydroxytryptamine 7 receptor
Test [6] deals with T4, Alpha-2C adrenergic receptor (Homo sapiens, UniProt P18825).
T4 sequence (P18825 whole entry): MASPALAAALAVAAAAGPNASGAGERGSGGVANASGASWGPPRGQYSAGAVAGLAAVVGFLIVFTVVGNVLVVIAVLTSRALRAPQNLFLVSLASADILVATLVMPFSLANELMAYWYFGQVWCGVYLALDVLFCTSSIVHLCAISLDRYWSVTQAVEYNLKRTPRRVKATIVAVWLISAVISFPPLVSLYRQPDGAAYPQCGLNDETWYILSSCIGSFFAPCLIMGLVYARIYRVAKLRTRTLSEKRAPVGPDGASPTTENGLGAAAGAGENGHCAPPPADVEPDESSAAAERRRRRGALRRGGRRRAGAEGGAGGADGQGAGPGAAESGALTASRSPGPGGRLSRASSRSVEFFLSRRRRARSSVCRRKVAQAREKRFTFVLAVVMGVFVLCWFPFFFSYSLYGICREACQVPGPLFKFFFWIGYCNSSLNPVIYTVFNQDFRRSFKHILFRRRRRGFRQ
Nature of the test: Inhibition of [3H]rauwolscine binding to Alpha-2C adrenergic receptor.

For test [7], the target named is Norepinephrine transporter (Rattus norvegicus, UniProt Q9WTR4). Nature of the test: Inhibition of [3H]nisoxetine binding to rat Norepinephrine transporter.
Chain of Norepinephrine transporter (Q9WTR4 whole entry): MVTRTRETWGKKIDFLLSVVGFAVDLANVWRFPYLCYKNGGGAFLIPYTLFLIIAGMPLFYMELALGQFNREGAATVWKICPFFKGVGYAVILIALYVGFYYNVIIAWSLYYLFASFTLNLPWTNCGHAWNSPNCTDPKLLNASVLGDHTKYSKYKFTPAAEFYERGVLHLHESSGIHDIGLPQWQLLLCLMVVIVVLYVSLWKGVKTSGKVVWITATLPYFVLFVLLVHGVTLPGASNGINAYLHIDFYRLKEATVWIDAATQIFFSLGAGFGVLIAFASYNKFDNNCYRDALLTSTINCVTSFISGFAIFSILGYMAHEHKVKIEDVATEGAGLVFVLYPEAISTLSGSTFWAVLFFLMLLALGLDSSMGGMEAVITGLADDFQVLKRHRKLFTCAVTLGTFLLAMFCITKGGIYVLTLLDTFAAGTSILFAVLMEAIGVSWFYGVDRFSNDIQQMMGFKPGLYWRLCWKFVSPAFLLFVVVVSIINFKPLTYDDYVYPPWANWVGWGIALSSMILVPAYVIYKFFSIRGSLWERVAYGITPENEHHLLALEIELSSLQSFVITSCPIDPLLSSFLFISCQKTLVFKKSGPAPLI
The species named for test [8] is Rattus norvegicus. Nature of the test: Effective dose for antagonistic activity against m-chlorophenyl-piperazine induced anxiety in rats. The test is classed as functional.
Test [9] has as its target D(1A) dopamine receptor (Homo sapiens, UniProt P21728). Nature of the test: Inhibition of [3H]SCH-23390 binding to human Dopamine receptor D1.
Test [10] concerns Rattus norvegicus. Nature of the test: In vivo effective dose for reversal of tryptamine-induced cyanosis in rats. It is filed as functional.
The subject of test [11] is Rattus norvegicus. Nature of the test: In vivo effective dose to inhibit apomorphine induced agitation in rats upon subcutaneous administration. It is filed as functional. As to conditions: sc.
For a further test, the target named is D(3) dopamine receptor (Homo sapiens, UniProt P35462).
Chain of D(3) dopamine receptor (P35462 whole entry): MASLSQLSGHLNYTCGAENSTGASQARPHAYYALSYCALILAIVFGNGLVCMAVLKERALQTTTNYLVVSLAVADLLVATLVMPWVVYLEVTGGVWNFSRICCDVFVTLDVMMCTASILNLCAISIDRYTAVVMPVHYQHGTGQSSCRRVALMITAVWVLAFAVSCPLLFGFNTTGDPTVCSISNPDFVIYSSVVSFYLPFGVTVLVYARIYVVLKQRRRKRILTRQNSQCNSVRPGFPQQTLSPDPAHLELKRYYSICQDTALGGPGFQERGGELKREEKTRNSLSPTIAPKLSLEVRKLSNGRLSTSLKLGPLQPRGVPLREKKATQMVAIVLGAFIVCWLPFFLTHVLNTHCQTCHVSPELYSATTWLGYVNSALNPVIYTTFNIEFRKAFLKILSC
In a further test the test system is Mus musculus. The test can be described thus: In vivo effective dose for reversal of RO-4-1284 induced hypothermia in mouse. It is filed as functional.
Test [12] relates to Rattus norvegicus. The test can be described thus: In vivo effective dose to inhibit tryptamine-induced bilateral convulsions in rats. The test is classed as functional.
The subject of test [13] is Rattus norvegicus. Nature of the test: In vivo effective dose for reversal of tryptamine-induced backward locomotion in rats. The test is classed as functional.
Test [14] has as its target D(1A) dopamine receptor (Rattus norvegicus, UniProt P18901).
Description: Inhibition of [3H]SCH-23390 binding to rat Dopamine receptor D1

Chain of Histamine H1 receptor (P35367 whole entry): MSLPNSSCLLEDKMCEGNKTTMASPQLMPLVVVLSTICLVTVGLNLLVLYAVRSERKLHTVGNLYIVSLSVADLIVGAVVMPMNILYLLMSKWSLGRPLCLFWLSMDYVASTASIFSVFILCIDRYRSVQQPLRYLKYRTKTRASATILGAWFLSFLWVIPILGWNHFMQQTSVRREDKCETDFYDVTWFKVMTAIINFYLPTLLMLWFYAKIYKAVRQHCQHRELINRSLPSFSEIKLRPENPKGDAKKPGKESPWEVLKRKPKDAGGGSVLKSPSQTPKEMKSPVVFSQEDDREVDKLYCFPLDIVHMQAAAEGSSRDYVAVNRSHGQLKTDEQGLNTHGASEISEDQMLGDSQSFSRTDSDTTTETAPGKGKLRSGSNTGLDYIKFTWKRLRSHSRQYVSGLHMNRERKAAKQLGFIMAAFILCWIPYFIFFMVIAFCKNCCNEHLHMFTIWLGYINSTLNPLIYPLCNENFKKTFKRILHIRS
Chain of 5-hydroxytryptamine receptor 2A (P28223 whole entry): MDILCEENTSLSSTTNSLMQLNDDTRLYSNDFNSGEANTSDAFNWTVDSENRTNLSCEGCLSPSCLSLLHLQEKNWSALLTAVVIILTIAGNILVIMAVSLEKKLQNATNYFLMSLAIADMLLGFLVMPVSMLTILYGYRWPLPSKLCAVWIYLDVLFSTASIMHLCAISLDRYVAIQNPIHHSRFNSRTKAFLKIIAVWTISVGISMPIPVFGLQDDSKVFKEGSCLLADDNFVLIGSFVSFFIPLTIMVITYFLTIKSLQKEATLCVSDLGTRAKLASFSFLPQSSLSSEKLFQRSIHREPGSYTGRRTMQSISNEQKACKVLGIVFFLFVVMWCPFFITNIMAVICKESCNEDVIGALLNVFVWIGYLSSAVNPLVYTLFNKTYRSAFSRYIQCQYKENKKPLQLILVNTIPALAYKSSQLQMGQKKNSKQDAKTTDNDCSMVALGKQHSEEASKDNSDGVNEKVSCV
Chain of D(1A) dopamine receptor (Homo sapiens, UniProt P21728) (P21728 whole entry): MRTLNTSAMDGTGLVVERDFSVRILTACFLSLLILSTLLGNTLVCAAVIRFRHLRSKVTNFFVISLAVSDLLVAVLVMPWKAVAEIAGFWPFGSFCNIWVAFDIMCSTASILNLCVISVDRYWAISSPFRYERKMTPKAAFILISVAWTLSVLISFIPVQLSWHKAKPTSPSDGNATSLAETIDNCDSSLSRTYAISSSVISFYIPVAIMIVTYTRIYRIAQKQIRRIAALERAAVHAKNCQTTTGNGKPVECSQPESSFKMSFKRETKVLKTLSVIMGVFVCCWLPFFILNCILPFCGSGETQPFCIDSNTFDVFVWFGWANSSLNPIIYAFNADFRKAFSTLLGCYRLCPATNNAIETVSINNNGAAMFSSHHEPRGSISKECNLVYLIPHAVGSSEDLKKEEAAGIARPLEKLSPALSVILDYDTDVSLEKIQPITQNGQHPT
Chain of D(1A) dopamine receptor (Rattus norvegicus, UniProt P18901) (P18901 whole entry): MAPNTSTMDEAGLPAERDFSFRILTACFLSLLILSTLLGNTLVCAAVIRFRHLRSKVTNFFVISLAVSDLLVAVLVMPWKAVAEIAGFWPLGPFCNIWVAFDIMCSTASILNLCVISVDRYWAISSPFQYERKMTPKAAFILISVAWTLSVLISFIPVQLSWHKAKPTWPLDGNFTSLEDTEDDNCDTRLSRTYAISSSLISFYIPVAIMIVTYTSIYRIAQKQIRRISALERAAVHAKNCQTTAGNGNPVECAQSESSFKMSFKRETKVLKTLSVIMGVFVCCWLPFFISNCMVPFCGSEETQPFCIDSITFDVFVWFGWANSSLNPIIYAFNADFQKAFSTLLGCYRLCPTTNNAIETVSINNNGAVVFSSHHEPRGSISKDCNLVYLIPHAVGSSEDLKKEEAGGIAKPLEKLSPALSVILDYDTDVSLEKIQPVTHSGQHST
Description for D(3) dopamine receptor: Inhibition of [125I]iodosulpiride binding to human Dopamine receptor D3
Description for Histamine H1 receptor: Inhibition of [3H]pyrilamine binding to human Histamine H1 receptor

As to `CN(C)C[C@H]1CC2c3ccccc3Oc3ccc(F)cc3[C@H]2O1` (some centres not stated), the Ki (commonly a measure of affinity in units of concentration, obtained from inhibition or displacement) at Histamine H1 receptor is 0.0075 µM; in test [1], more than 5.45 µM; in test [2] it was 0.269 µM; in test [3] it was 0.0043 µM; in test [4], 0.071 µM; in [5], 0.08 µM. The Ki is 0.2 µM in test [6] and 0.0036 µM in test [7].

As to `CN(C)C[C@@H]1CC2c3ccccc3Oc3ccc(F)cc3[C@H]2O1` (some centres not stated), the Ki on Histamine H1 receptor was 0.033 µM; in test [1] it was more than 5.45 µM; in [2], 0.251 µM; in test [3], 0.0076 µM; in test [4], 0.338 µM; in test [5], 0.057 µM. The results for the Ki in test [6] and in [7] were 0.219 µM and 0.02 µM, respectively.

With `CN(C)C[C@H]1CC2c3ccccc3Sc3ccc(F)cc3[C@H]2O1` (stereo in doubt; (-)-8d), the Ki at Histamine H1 receptor is 0.0006 µM; in test [2], 0.079 µM; in test [3], 0.00021 µM; at D(1A) dopamine receptor [9], 0.003 µM; in test [4], 0.0075 µM; in test [5] it was 0.0062 µM. For the same compound, the results for the Ki (in test [6]; on D(3) dopamine receptor; in test [7]) were 0.073 µM, 0.019 µM and 0.002 µM, respectively. The median effective dose (ED50) (in general, the midpoint of the dose-response relation) is more than 0.63 mg/kg in the test filed under Rattus norvegicus [8]; 0.013 mg/kg in the test on Rattus norvegicus [10]; 0.13 mg/kg with Rattus norvegicus [11]; 0.025 mg/kg with Mus musculus; 0.0079 mg/kg with Rattus norvegicus [12]; 0.32 mg/kg with Rattus norvegicus [13].

Regarding `CN1CCN2c3ncccc3Cc3ccccc3C2C1` (configuration not stated) [MIRTAZAPINE], the ED50 in the test listed under Rattus norvegicus [8] is 0.1 mg/kg; in the test with Rattus norvegicus [10], 0.8 mg/kg; in the test with Rattus norvegicus [11], more than 10 mg/kg; in the test with Mus musculus it was more than 40 mg/kg; in the test with Rattus norvegicus [12] it was 0.32 mg/kg; in the test with Rattus norvegicus [13], 0.5 mg/kg. Further, the Ki in test [3] worked out at 0.039 µM; on D(1A) dopamine receptor [14] it was 4.17 µM; in test [4] it was 0.608 µM; in test [6] it was 0.018 µM; in test [7], 1.64 µM.
